Measurements from patent EP4592276A1, “NOVEL ACY[…] OF PSILOCIN AND RELATED 4-HYDROXYT[…] BY AN EFFICIENT […] APPROACH” (Universität Heidelberg, priority 2024, dated 2025).
Counter-ions that a name gives are not always drawn. Marks after values point to notes of the source that are not given here.

Key:
[1] = Passive membrane permeation assay (PAMPA); assay type: in vitro ADME; conditions: pre-coated PAMPA plate, PBS pH 7.4, 200 µM, 25 °C; for R (mass retention) / Pe: 5 h; for Papp at 5 h, 200 µM / Pe: mean ± standard deviation; for Papp at 5 h, 200 µM: read-out: Pe
Method: The passive membrane permeability was evaluated with a pre-coated PAMPA plate system (BD Gentest, BD Bioscience, Germany) following the guidelines of the manufacturer and a previous literature report (cf. Kühl et al. Eur. J. Med. Chem. 2022, 240, 114585). Phosphate-buffered saline (PBS) pH 7.4 (Sigma-Aldrich, Germany) was used for all experiments. Analyte concentrations were determined on a Jasco HPLC system equipped with a UV detector and an RP-18 column (Chromolith® Performance RP-18e, 100x4.6 mm) using one of the gradients listed in Table 2. For all samples, the injection volume was 40 µl. Table 2: HPLC settings for the analysis of PAMPA samples.
Prior to performing the assay, the PAMPA plate was warmed to room temperature for 0.5 h. In the donor plate, 300 µL of the 200 µM compound solutions in PBS (4 % dimethyl sulfoxide (DMSO)) were dispensed in triplicate, and in the acceptor plate, 200 µL of PBS buffer were added to all wells. The plates were combined, and the system was incubated at 25 °C for 5 h. Upon completion of the incubation, donor and acceptor plate were separated. The wells were homogeneously mixed with a pipette, and a 100 µl sample of each donor and acceptor well was transferred to 96 well U-bottom polypropylene plates (Greiner Bio-One, Germany) for quantitative HPLC analysis.

[2] = test system: HuH-7 cells; experiment: Cell viability in HuH-7 cells (CellTiter-Blue); assay type: cell-based, human; conditions: for Cell Viability in HuH7 at 50 µM, 2 h Incubation / Cell Viability in HuH7 at 50 µM, 24 h Incubation: mean of triplicates ± standard deviation; for toxicity for HuH-7 cells: result in words
Method: In order to assess cytotoxic effects of compounds in cell culture, HuH-7 cells were incubated in presence of these compounds in a 96-well plate for 2 h or 24 h. In order to generate a calibration curve for cell viability, a serial dilution (1:2 dilution series) of cells was seeded into control wells. Measurement of cell viability is based on the assay development using CellTiter-Blue reagent (Resazurin, blue color), which is reduced to resofurin (pink color) by viable cells.
Prior to performing the assay, a 96-well assay plate (F-bottom, transparent, Greiner) containing HuH-7 cells (20,000 cells per well) in culture medium was prepared. […] CellTiter-Blue reagent (1-2 mL) was diluted with cell culture medium (10 mL) in a Falcon tube and prewarmed to 37 °C. The 96-well plate was removed from the incubator, the medium aspirated using a vacuum pump and 100 µL of diluted CellTiter-Blue reagent was added to each well.

[3] = Prodrug stability in human whole saliva; assay type: in vitro ADME; conditions: mean of fresh samples of three individuals, classified into three groups; for half-life at 50 µM: 37 °C
Method: Freshly collected saliva and 5 mM stock solutions of the analytes in DMSO were prewarmed to 37 °C for 10 min. Then, 700 µl prewarmed saliva was added to 7 µl of the prodrug stock, and the mixture was incubated at 37 °C. Samples (100 µL) were taken at selected time points (0, 10, 20, 40, 60 min; 2 h or 24 h) and immediately quenched with acetonitrile (200 µl). Blank samples were prepared by mixing saliva (100 µl) with acetonitrile (200 µl). Centrifugation (3,000 rpm, 5 min) of the quenched samples afforded clear supernatants which were transferred to 96 well U-bottom polypropylene plates (Greiner Bio-One, Germany). Analyte quantifications were performed on a Jasco HPLC system equipped with a UV detector and an RP-18 column (Chromolith® Performance RP-18e, 100x4.6 mm) using the gradients listed in Table 4. Samples that gave rise to asymmetric peaks inadequate for quantification were diluted (1:1) with H2O (+0.1 % TFA). The injection volume was 40 µl and the flow was set to 1.0 mL/min. UV detection was performed at 286 nm. […] Table 4: HPLC settings for quantitative analysis of saliva samples.

[4] = Drug release kinetics (prodrug cleavage) in human blood plasma; assay type: in vitro ADME; conditions: for half-life: 10 % human plasma in PBS, 50 µM; for half-life / half-life at 50 µM: 37 °C; for half-life at 50 µM: 100 % pooled human blood plasma; for t1/2 at 37 °C and [prodrug]0 = 50 µM, 100 % Human Plasma / half-life at 50 µM: 100 % human plasma
Method: Pooled human blood plasma (Biowest, France) and sterile Dulbecco's phosphate buffered saline (PBS) pH 7.3 (Sigma-Aldrich, Germany) were used for all experiments. The blood plasma was aliquoted upon receipt and stored at -20 °C. 10 % solutions were prepared by thawing a plasma aliquot at 2-8 °C, distributing it into plastic vials and diluting with the appropriate volume of sterile PBS. The 10 % and 100 % plasma aliquots were stored at -20 °C and thawed at 2-8 °C directly before the assay was performed. In a thermoblock, a plasma aliquot and 10 µl of a 5 mM prodrug solution in DMSO were prewarmed to 37 °C for 10 min in separate plastic vials. Then, 1000 µl of the prewarmed plasma sample was added to the prodrug solution, and 9×100 µl samples were withdrawn at appropriate time intervals. The enzymatic reaction was quenched by immediate mixing of the samples (100 µl) with acetonitrile (200 µl). Blank samples were prepared by mixing 10 % or 100 % plasma (100 µl) with acetonitrile (200 µl), respectively. Samples of the initial reaction mixture were prepared by adding the 5 mM prodrug solution (1 µl) to a blank sample.
Centrifugation (13,000 rpm, 3 min) of the quenched samples afforded clear supernatants which were transferred to 96 well U-bottom polypropylene plates (Greiner Bio-One, Germany). Analyte quantifications were performed on a Jasco HPLC system equipped with a UV detector and an RP-18 column (Chromolith® Performance RP-18e, 100x4.6 mm) using one of the gradients listed in Table 3. Prodrug degradation was monitored using undiluted supernatant and a 10 min chromatographic method. […] For all samples, the injection volume was 40 µL and the flow was set to 1.0 mL/min. […] Table 3: HPLC settings for quantitative analysis of plasma samples.

Compound: CCN(C)CCc1c[nH]c2cccc(O)c12 [4-OH-MET fumarate 17, 4-Hydroxy-N-ethyl-N-methyltryptammonium fumarate, reference compound]
- R (mass retention) [1]: 29%
- Papp at 5 h, 200 µM [1]: 11 ± 1 ×10⁻⁶ cm/s
- Cell Viability in HuH7 at 50 µM, 2 h Incubation [2]: 91.0 ± 1.7%
- Cell Viability in HuH7 at 50 µM, 24 h Incubation [2]: 82.9 ± 1.3%

Compound: CC(=O)Oc1ccccc1C(=O)O [Acetylsalicylic acid, reference compound]
- Cell Viability in HuH7 at 50 µM, 2 h Incubation [2]: 92.9 ± 3.3%
- Cell Viability in HuH7 at 50 µM, 24 h Incubation [2]: 83.8 ± 3.8%
- half-life at 50 µM ([3]; both sexes): > 60 min

Compound: Cn1c(=O)c2c(ncn2C)n(C)c1=O [Caffeine, reference compound]
- R (mass retention) [1]: 1%
- Papp at 5 h, 200 µM [1]: 12.8 ± 0.9 ×10⁻⁶ cm/s

Compound: CCN(C)CCc1c[nH]c2cccc(OC(C)=O)c12 [Compound 8a, 4-Acetoxy-N-ethyl-N-methyltryptammonium fumarate, reference compound]
- R (mass retention) [1]: 4%
- Papp at 5 h, 200 µM [1]: 5.6 ± 0.8 ×10⁻⁶ cm/s
- Cell Viability in HuH7 at 50 µM, 2 h Incubation [2]: 88.7 ± 3.0%
- Cell Viability in HuH7 at 50 µM, 24 h Incubation [2]: 85.4 ± 3.6%
- half-life [4]: 0.69 ± 0.14 min
- half-life at 50 µM [3]: 15 to 60 min

Compound: CCN(C)CCc1c[nH]c2cccc(OC(=O)C3CC3)c12.CCN(C)CCc1c[nH]c2cccc(OC(=O)C3CC3)c12.O=C(O)/C=C/C(=O)O [Compound 8e, 4-(Cyclopropanecarbonyloxy)-N-ethyl-N-methyltryptammonium fumarate]
- Cell Viability in HuH7 at 50 µM, 2 h Incubation [2]: 101.2 ± 3.1%
- Cell Viability in HuH7 at 50 µM, 24 h Incubation [2]: 81.7 ± 2.0%
- t1/2 at 37 °C and [prodrug]0 = 50 µM, 100 % Human Plasma [4]: 0.84 ± 0.11^c min
- t1/2 at 37 °C and [prodrug]0 = 50 µM, Human Saliva [3]: > 60 min

Compound: CCN(C)CCc1c[nH]c2cccc(OC(=O)CC(C)C)c12 [Compound 8g, 4-(3-Methylbutanoyl)oxy-N-ethyl-N-methyltryptammonium fumarate]
- R (mass retention) [1]: 2%
- Papp at 5 h, 200 µM [1]: 10.6 ± 0.8 ×10⁻⁶ cm/s
- Cell Viability in HuH7 at 50 µM, 2 h Incubation [2]: 81.7 ± 8.6%
- Cell Viability in HuH7 at 50 µM, 24 h Incubation [2]: 79.8 ± 4.6%
- half-life [4]: > 8 min

Compound: CCN(C)CCc1c[nH]c2cccc(OC(=O)CC(C)(C)C)c12 [Compound 8h, 4-(tert-Butylacetyl)oxy-N-ethyl-N-methyltryptammonium fumarate]
- R (mass retention) [1]: 1%
- Papp at 5 h, 200 µM [1]: 11.2 ± 0.8 ×10⁻⁶ cm/s
- Cell Viability in HuH7 at 50 µM, 2 h Incubation [2]: 28.7 ± 1.1%
- Cell Viability in HuH7 at 50 µM, 24 h Incubation [2]: 42.3 ± 25.9%
- half-life [4]: > 8 min

Compound: CCN(C)CCc1c[nH]c2cccc(OC(=O)c3ccco3)c12.CCN(C)CCc1c[nH]c2cccc(OC(=O)c3ccco3)c12.O=C(O)/C=C/C(=O)O [Compound 8j, 4-(2-Furoyl)oxy-N-ethyl-N-methyltryptammonium fumarate]
- Cell Viability in HuH7 at 50 µM, 2 h Incubation [2]: 89.6 ± 3.4%
- Cell Viability in HuH7 at 50 µM, 24 h Incubation [2]: 78.0 ± 2.0%
- t1/2 at 37 °C and [prodrug]0 = 50 µM, 100 % Human Plasma [4]: 0.14 ± 0.01 min
- t1/2 at 37 °C and [prodrug]0 = 50 µM, Human Saliva [3]: 15 to 60 min

Compound: CN(C)CCc1cn(C(=O)OCc2ccccc2)c2cccc(O)c12 [Compound 10, 1-Benzyloxycarbonyl-4-hydroxy-N,N-dimethyltryptamine]
- Cell Viability in HuH7 at 50 µM, 2 h Incubation [2]: 0.1 ± 0.2%
- Cell Viability in HuH7 at 50 µM, 24 h Incubation [2]: -1.3 ± 0.1%
- toxicity for HuH-7 cells [2]: extremely toxic
- half-life at 50 µM [4]: > 95 h

Compound: CCN(C)CCc1cn(C(=O)OCc2ccccc2)c2cccc(O)c12 [Compound 11, 1-Benzyloxycarbonyl-4-hydroxy-N-ethyl-N-methyltryptamine]
- Cell Viability in HuH7 at 50 µM, 2 h Incubation [2]: 0.1 ± 0.2%
- Cell Viability in HuH7 at 50 µM, 24 h Incubation [2]: -2.1 ± 0.1%
- toxicity for HuH-7 cells [2]: extremely toxic
- half-life at 50 µM [4]: > 95 h

Compound: CCCC(=O)OCOc1cccc2[nH]cc(CCN(C)C)c12 [Compound 15b, 4-n-Butanoyloxymethyloxy-N,N-dimethyltryptammonium fumarate]
- R (mass retention) [1]: 7^b %
- Pe [1]: 8.1 ± 0.8^b 10^-6 cm/s
- Cell Viability in HuH7 at 50 µM, 2 h Incubation [2]: 90.0 ± 5.2%
- Cell Viability in HuH7 at 50 µM, 24 h Incubation [2]: 79.3 ± 3.5%
- half-life at 50 µM [3]: < 15 min

Compound: CCCC(=O)OCOc1cccc2[nH]cc(CCN(C)CC)c12 [Compound 15d, 4-n-Butanoyloxymethyloxy-N-ethyl-N-methyltryptammonium fumarate]
- R (mass retention) [1]: 6%
- Pe [1]: 8.0 ± 0.3 10^-6 cm/s
- Cell Viability in HuH7 at 50 µM, 2 h Incubation [2]: 85.4 ± 2.7%
- Cell Viability in HuH7 at 50 µM, 24 h Incubation [2]: 80.6 ± 3.3%
- half-life at 50 µM [3]: < 15 min

Compound: NS(=O)(=O)c1cc(C(=O)O)c(NCc2ccco2)cc1Cl [Furosemide, reference compound]
- Pe [1]: -0.4 ± 0.3^c 10^-6 cm/s
- Cell Viability in HuH7 at 50 µM, 2 h Incubation [2]: 121.9 ± 13.8%
- Cell Viability in HuH7 at 50 µM, 24 h Incubation [2]: 90.7 ± 1.1%

Compound: CN(C)CCCN1c2ccccc2CCc2ccccc21 [Imipramine HCl, reference compound]
- Cell Viability in HuH7 at 50 µM, 2 h Incubation [2]: 91.1 ± 3.7%
- Cell Viability in HuH7 at 50 µM, 24 h Incubation [2]: 24.4 ± 5.3%

Compound: O=C1NC(=O)C(c2ccccc2)(c2ccccc2)N1 [Phenytoin, reference compound]
- R (mass retention) [1]: 57%
- Papp at 5 h, 200 µM [1]: 7.5 ± 1 ×10⁻⁶ cm/s
- Cell Viability in HuH7 at 50 µM, 2 h Incubation [2]: 122.9 ± 1.7%
- Cell Viability in HuH7 at 50 µM, 24 h Incubation [2]: 84.2 ± 2.7%

Compound: CN(C)CCc1c[nH]c2cccc(O)c12 [Psilocin 1, 4-Hydroxy-N,N-dimethyltryptamine, reference compound]
- Cell Viability in HuH7 at 50 µM, 2 h Incubation [2]: 93.7 ± 6.3%
- Cell Viability in HuH7 at 50 µM, 24 h Incubation [2]: 72.5 ± 8.3%
